{"source": "patent US12655116B2", "about": "“Substituted isophthalic acid diamides” (Bayer Aktiengesellschaft, priority 2020, dated 2026)", "key": {"STEME [1]": {"test_system": "STEME", "experiment": "Pre-emergence herbicidal action against STEME", "assay_type": "in vivo, Stellaria media", "conditions": "Stellaria media, 504 h", "method_in_brief": "(§1)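 Seeds sown in sandy loam, soil-covered; compound sprayed on soil surface pre-emergence. Application: WP/EC, 600–800 l/ha, 0.2% wetting agent. Readout: visual % damage at 3 weeks.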"}, "LOLRI [2]": {"test_system": "LOLRI", "experiment": "Post-emergence herbicidal action against LOLRI", "assay_type": "in vivo, Lolium rigidum", "conditions": "Lolium rigidum, 504 h", "method_in_brief": "(§2)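 Sandy loam, greenhouse; treatment 2–3 weeks after sowing, one-leaf stage. Aqueous suspension or emulsion from WP/EC sprayed on foliage (600–800 l/ha, 0.2% wetting agent). Readout: visual % action, ~3 weeks.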"}, "ABUTH [3]": {"test_system": "ABUTH", "experiment": "Post-emergence herbicidal action against ABUTH", "assay_type": "in vivo, Abutilon theophrasti", "conditions": "Abutilon theophrasti, 504 h, visual assessment about 3 weeks after treatment vs untreated controls", "method_in_brief": "as §2"}, "AMARE [4]": {"test_system": "AMARE", "experiment": "Pre-emergence herbicidal action against AMARE", "assay_type": "in vivo, Amaranthus retroflexus", "conditions": "Amaranthus retroflexus, 504 h, 100% = plants have died, 0% = like control plants", "method_in_brief": "as §1"}, "VIOTR [5]": {"test_system": "VIOTR", "experiment": "Pre-emergence herbicidal action against VIOTR", "assay_type": "in vivo, Viola tricolor", "conditions": "Viola tricolor, 504 h", "method_in_brief": "as §1"}, "MATIN": {"test_system": "MATIN", "experiment": "Pre-emergence herbicidal action against MATIN", "assay_type": "in vivo, Matricaria inodora", "conditions": "Tripleurospermum inodorum, 504 h", "method_in_brief": "as §1"}, "SETVI [6]": {"test_system": "SETVI", "experiment": "Post-emergence herbicidal action against SETVI", "assay_type": "in vivo, Setaria viridis", "conditions": "Setaria viridis, 504 h", "method_in_brief": "as §2"}, "VERPE [7]": {"test_system": "VERPE", "experiment": "Post-emergence herbicidal action against VERPE", "assay_type": "in vivo, Veronica persica", "conditions": "Veronica persica, 504 h", "method_in_brief": "as §2"}, "PHBPU": {"test_system": "PHBPU", "experiment": "Post-emergence herbicidal action against PHBPU", "assay_type": "in vivo, Pharbitis purpurea", "conditions": "Ipomoea purpurea, 504 h, dosage 80 g/ha", "method_in_brief": "as §2"}, "AMARE [8]": {"test_system": "AMARE", "experiment": "Post-emergence herbicidal action against AMARE", "assay_type": "in vivo, Amaranthus retroflexus", "conditions": "Amaranthus retroflexus, 504 h, visual assessment about 3 weeks after treatment, 100% = plants have died, 0% = like control plants", "method_in_brief": "as §2"}, "AVEFA": {"test_system": "AVEFA", "experiment": "Pre-emergence herbicidal action against AVEFA", "assay_type": "in vivo, Avena fatua", "conditions": "Avena fatua, 504 h, pre-emergence", "method_in_brief": "as §1"}, "LOLRI [9]": {"test_system": "LOLRI", "experiment": "Pre-emergence herbicidal action against LOLRI", "assay_type": "in vivo, Lolium rigidum", "conditions": "Lolium rigidum, 504 h, 320 g/ha", "method_in_brief": "as §1"}, "SETVI [10]": {"test_system": "SETVI", "experiment": "Pre-emergence herbicidal action against SETVI", "assay_type": "in vivo, Setaria viridis", "conditions": "Setaria viridis, 504 h", "method_in_brief": "as §1"}, "ALOMY": {"test_system": "ALOMY", "experiment": "Pre-emergence herbicidal action against ALOMY", "assay_type": "in vivo, Alopecurus myosuroides", "conditions": "Alopecurus myosuroides, pre-emergence, 504 h; 320 g/ha; scored visually after 3 weeks, 100% = plants have died, 0% = like control plants", "method_in_brief": "as §1"}, "HORMU [11]": {"test_system": "HORMU", "experiment": "Pre-emergence herbicidal action against HORMU", "assay_type": "in vivo, Hordeum murinum", "conditions": "Hordeum murinum, 504 h, pre-emergence", "method_in_brief": "as §1"}, "VIOTR [12]": {"test_system": "VIOTR", "experiment": "Post-emergence herbicidal action against VIOTR", "assay_type": "in vivo, Viola tricolor", "conditions": "Viola tricolor, 504 h, 80 g/ha", "method_in_brief": "as §2"}, "ABUTH [13]": {"test_system": "ABUTH", "experiment": "Pre-emergence herbicidal action against ABUTH", "assay_type": "in vivo, Abutilon theophrasti", "conditions": "Abutilon theophrasti, 504 h", "method_in_brief": "as §1"}, "HORMU [14]": {"test_system": "HORMU", "experiment": "Post-emergence herbicidal action against HORMU", "assay_type": "in vivo, Hordeum murinum", "conditions": "Hordeum murinum, 504 h, dosage 80 g/ha", "method_in_brief": "as §2"}, "POLCO [15]": {"test_system": "POLCO", "experiment": "Post-emergence herbicidal action against POLCO", "assay_type": "in vivo, Polygonum convolvulus", "conditions": "Fallopia convolvulus, 504 h, dosage 80 g/ha", "method_in_brief": "as §2"}, "VERPE [16]": {"test_system": "VERPE", "experiment": "Pre-emergence herbicidal action against VERPE", "assay_type": "in vivo, Veronica persica", "conditions": "Veronica persica, 504 h", "method_in_brief": "as §1"}, "POLCO [17]": {"test_system": "POLCO", "experiment": "Pre-emergence herbicidal action against POLCO", "assay_type": "in vivo, Polygonum convolvulus", "conditions": "Fallopia convolvulus, 504 h, dosage 320 g/ha", "method_in_brief": "as §1"}, "STEME [18]": {"test_system": "STEME", "experiment": "Post-emergence herbicidal action against STEME", "assay_type": "in vivo, Stellaria media", "conditions": "Stellaria media, 504 h", "method_in_brief": "as §2"}, "ECHCG": {"test_system": "ECHCG", "experiment": "Pre-emergence herbicidal action against ECHCG", "assay_type": "in vivo, Echinochloa crus-galli", "conditions": "Echinochloa crus-galli, 504 h", "method_in_brief": "as §1"}}, "data": [{"smiles": "CCn1nnnc1NC(=O)c1ccc(C(F)(F)F)c(C(=O)NC)c1SC", "note": "[Example 2-81]", "values": [{"measurement": "pest or weed control at 80 g/ha", "setting": "STEME [1]; dosage 80 g/ha", "result": 90, "unit": "%"}, {"measurement": "pest or weed control at 320 g/ha", "setting": "STEME [1]; dosage 320 g/ha", "result": 100, "unit": "%"}, {"measurement": "pest or weed control at 20 g/ha", "setting": "LOLRI [2]; dosage 20 g/ha", "result": 80, "unit": "%"}, {"measurement": "pest or weed control at 80 g/ha", "setting": "LOLRI [2]; dosage 80 g/ha", "result": 90, "unit": "%"}, {"measurement": "pest or weed control at 20 g/ha", "setting": "ABUTH [3]; dosage 20 g/ha", "result": 90, "unit": "%"}, {"measurement": "pest or weed control at 80 g/ha", "setting": "ABUTH [3]; dosage 80 g/ha", "result": 90, "unit": "%"}, {"measurement": "pest or weed control at 80 g/ha", "setting": "AMARE [4]; 80 g/ha, scored visually after 3 weeks vs untreated controls", "result": 100, "unit": "%"}, {"measurement": "pest or weed control at 320 g/ha", "setting": "AMARE [4]; 320 g/ha, scored visually after 3 weeks", "result": 100, "unit": "%"}, {"measurement": "pest or weed control at 80 g/ha", "setting": "VIOTR [5]; dosage 80 g/ha", "result": 90, "unit": "%"}, {"measurement": "pest or weed control at 320 g/ha", "setting": "VIOTR [5]; dosage 320 g/ha", "result": 100, "unit": "%"}, {"measurement": "pest or weed control at 80 g/ha", "setting": "MATIN; dosage 80 g/ha", "result": 100, "unit": "%"}, {"measurement": "pest or weed control at 320 g/ha", "setting": "MATIN; dosage 320 g/ha", "result": 100, "unit": "%"}, {"measurement": "pest or weed control at 20 g/ha", "setting": "SETVI [6]; dosage 20 g/ha", "result": 90, "unit": "%"}, {"measurement": "pest or weed control at 80 g/ha", "setting": "SETVI [6]; dosage 80 g/ha", "result": 90, "unit": "%"}, {"measurement": "pest or weed control at 20 g/ha", "setting": "VERPE [7]; 20 g/ha", "result": 80, "unit": "%"}, {"measurement": "pest or weed control at 80 g/ha", "setting": "VERPE [7]; 80 g/ha", "result": 90, "unit": "%"}, {"measurement": "pest or weed control at 80 g/ha", "setting": "PHBPU", "result": 90, "unit": "%"}, {"measurement": "pest or weed control at 20 g/ha", "setting": "AMARE [8]; 20 g/ha", "result": 90, "unit": "%"}, {"measurement": "pest or weed control at 80 g/ha", "setting": "AMARE [8]; 80 g/ha", "result": 90, "unit": "%"}, {"measurement": "pest or weed control at 80 g/ha", "setting": "AVEFA; 80 g/ha", "result": 80, "unit": "%"}, {"measurement": "pest or weed control at 320 g/ha", "setting": "AVEFA; 320 g/ha, scored visually after 3 weeks, 100% = plants have died, 0% = like control plants", "result": 100, "unit": "%"}, {"measurement": "pest or weed control at 320 g/ha", "setting": "LOLRI [9]", "result": 90, "unit": "%"}, {"measurement": "pest or weed control at 80 g/ha", "setting": "SETVI [10]; dosage 80 g/ha", "result": 100, "unit": "%"}, {"measurement": "pest or weed control at 320 g/ha", "setting": "SETVI [10]; dosage 320 g/ha", "result": 100, "unit": "%"}, {"measurement": "pest or weed control at 320 g/ha", "setting": "ALOMY", "result": 90, "unit": "%"}, {"measurement": "pest or weed control at 80 g/ha", "setting": "HORMU [11]; 80 g/ha", "result": 90, "unit": "%"}, {"measurement": "pest or weed control at 320 g/ha", "setting": "HORMU [11]; 320 g/ha", "result": 100, "unit": "%"}, {"measurement": "pest or weed control at 80 g/ha", "setting": "VIOTR [12]", "result": 90, "unit": "%"}, {"measurement": "pest or weed control at 80 g/ha", "setting": "ABUTH [13]; 80 g/ha, scored visually after 3 weeks vs untreated controls (100% = plants have died, 0% = like control plants)", "result": 100, "unit": "%"}, {"measurement": "pest or weed control at 320 g/ha", "setting": "ABUTH [13]; Dosage: 320 g/ha, scored visually after 3 weeks, 100% = plants have died, 0% = like control plants", "result": 100, "unit": "%"}, {"measurement": "pest or weed control at 80 g/ha", "setting": "HORMU [14]", "result": 80, "unit": "%"}, {"measurement": "pest or weed control at 80 g/ha", "setting": "POLCO [15]", "result": 80, "unit": "%"}, {"measurement": "pest or weed control at 80 g/ha", "setting": "VERPE [16]; dosage 80 g/ha", "result": 90, "unit": "%"}, {"measurement": "pest or weed control at 320 g/ha", "setting": "VERPE [16]; dosage 320 g/ha", "result": 90, "unit": "%"}, {"measurement": "pest or weed control at 320 g/ha", "setting": "POLCO [17]", "result": 100, "unit": "%"}, {"measurement": "pest or weed control at 20 g/ha", "setting": "STEME [18]; 20 g/ha", "result": 90, "unit": "%"}, {"measurement": "pest or weed control at 80 g/ha", "setting": "STEME [18]; 80 g/ha", "result": 100, "unit": "%"}, {"measurement": "pest or weed control at 80 g/ha", "setting": "ECHCG; 80 g/ha", "result": 100, "unit": "%"}, {"measurement": "pest or weed control at 320 g/ha", "setting": "ECHCG; 320 g/ha", "result": 100, "unit": "%"}]}]}
